{"source": "patent US20210009959A1", "about": "“METHODS FOR ENHANCING OSTEOGENIC DIFFERENTIATION USING VITAMIN D” (priority 2019, published 2021)", "format_in_all_cases": "cell-based", "key": {"[1]": {"system": "human adipose stem cells (hASCs)", "experiment": "hASC attachment to BCP20/80 scaffolds after calcitriol pre-treatment", "procedure": "In one embodiment, a method of static culture of hASCs by pre-treatment with vitamin D3 (calcitriol) and attachment of hASCs to the scaffold used in one-step surgical procedure comprises the following steps. At one step, isolating hASCs as explained in FIG. 1. In an embodiment, the hASCs from three donors at passage 3 are used for further processing. As an optional step, the obtained hASCs are either or not incubated for a period of about 30 mins with low concentrated calcitriol of about 10 nM at room temperature. At next step, the calcitriol treated hASCs are washed twice with Phosphate Buffered Saline (PBS) to remove calcitriol. Further, the washed hASCs are centrifuged and resuspended in Dulbecco's Minimum Essential Medium (DMEM) without any supplements. At another step, the resuspended cells are seeded on the scaffold and allowed to attach to the scaffolds for a period of about 30 minutes. At next step, the scaffolds with attached cells are transferred to 12-well plates with Costar® Transwell® containers (Corning Life Sciences, Lowell, Mass., USA) containing expansion medium (DMEM) supplemented with 10% Fetal Clone I (FCI), antibiotics (1% penicillin/streptomycin/fungizone (PSF)), 50 μM ascorbic acid (Merck, Darmstadt, Germany), and 10 mM β-glycerol phosphate (Merck, Darmstadt, Germany) (PLGA/β-TCP). […]"}, "[2]": {"system": "human adipose stem cells (hASCs)", "experiment": "ALP activity of hASCs in 3D PLGA/β-TCP scaffold, dynamic and static culture", "procedure": "(§1) In one embodiment, dynamic culture of pre-treated hASCs with calcitriol, using the modified perfusion bioreactor comprises the following steps. In one embodiment, the scaffolds are 3D PLGA/β-TCP. The modified perfusion bioreactor […] comprises five scaffolds, loaded with a total of 70 ml of culture medium as shown in FIG. 2. At another step, 30 ml of the culture medium is replaced twice a week for a total period of two weeks. At another step, the culture medium in the modified perfusion bioreactor 200 is distributed to the five scaffolds with the flow rate of about 5 ml/min using the peristaltic pump 202.\n(§2) In one embodiment, the method of static culture of pre-treated hASCs is continued in a flask bioreactor with the same volume of culture medium utilized in the dynamic culture. Further, the methods of culturing the hASCs are divided into different groups. In one embodiment, the methods of culturing of hASCs are divided into four groups such as, static culture of non-treated hASCs, static culture of pre-treated hASCs with calcitriol, dynamic culture of non-treated hASCs and dynamic culture of pre-treated hASCs with calcitriol.\nReferring to FIG. 10, the effects of dynamic pre-treated/non-treated hASCs versus static pre-treated/non-treated hASCs on ALP activity of hASCs are disclosed, where the hASCs are seeded in 3D PLGA/β-TCP scaffold. In one embodiment, the hASCs are pre-treated with or without 10 nM calcitriol for 30 minutes and cultured in the modified perfusion bioreactor 200 (dynamic culture) and flask bioreactor (static culture). The ALP activity of hASCs after 7 days perfusion culture of pre-treated hASCs is increased by 9.2-fold compared to static culture of pre-treated hASCs, and the ALP activity of non-treated hASCs is increased by 10.3-fold compared to static culture of non-treated hASCs.\nThe 14 days of perfusion culture of non-treated hASCs increases ALP activity by 1.4-fold relative to static counterpart, and perfusion culture of pre-treated hASCs increases ALP activity by 2.2-fold relative to static culture of pre-treated hASCs. Moreover, calcitriol pre-treatment increases ALP activity of hASCs by 2.8-fold at day 7 and 1.3-fold at day 14 compared to non-treated hASCs in static condition. On the whole, the highest ALP activity is observed at day 7, which belongs to perfusion culture of pre-treated hASCs with calcitriol."}, "[3]": {"system": "human adipose stem cells (hASCs)", "experiment": "Metabolic activity / cell proliferation of hASCs in 3D PLGA/β-TCP scaffold, dynamic (perfusion bioreactor) and static (flask) culture", "procedure": "as §1, §2\nReferring to FIG. 9, the effects of dynamic pre-treated/non-treated hASCs versus static pre-treated/non-treated hASCs on metabolic activity or cell proliferation of hASCs is disclosed, where the pre-treated hASCs are seeded in 3D PLGA/β-TCP scaffold. In one embodiment, the hASCs are pre-treated with or without 10 nM calcitriol for 30 minutes and cultured in the modified perfusion bioreactor 200 (dynamic culture) and flask bioreactor (static culture). […] Also, the culturing groups are compared and there is no significant difference between the groups. However, the 14 days of dynamic culture of both non-treated hASCs and pre-treated hASCs increases cell proliferation by 1.1-fold relative to 7 days of culture.\nIn addition, alamarBlue assay, ALP assay, ALP staining, analysis of osteogenic and angiogenic gene expression and related protein content to evaluate the synergistic effects of flow-induced shear stress using a modified perfusion bioreactor and calcitriol pre-treatment are used for the examinations."}, "[4]": {"system": "human adipose stem cells (hASCs)", "experiment": "ALP staining using NBT/BCIP in hASCs", "conditions": "30 min treatment; 2 and 3 weeks of culture; compared to continuous treatment", "from_the_text": "Referring to FIG. 6, the effect of calcitriol treatment on ALP activity in hASCs by ALP staining using nitro blue tetrazolium chloride/5-bromo-4-chloro-3-indolyl phosphate (NBT/BCIP) is disclosed. […] The increase in ALP activity is confirmed by ALP staining after 14 days of culture. […] The cell distribution is confirmed by 4′,6-diamidino-2-phenylindole (DAPI) staining."}}}
{"molecule": "C=C1/C(=C\\C=C2/CCC[C@]3(C)[C@@H]([C@H](C)CCCC(C)(C)O)CC[C@@H]23)C[C@@H](O)C[C@@H]1O", "note": "[calcitriol, 1,25-dihydroxyvitamin D3]", "values": [{"measurement": "cell attachment to BCP scaffolds", "setting": "[1]; 30 min pre-treatment with 10 nM calcitriol (non-treated 54%)", "result": 83, "unit": "%"}, {"measurement": "cell attachment to BCP scaffolds, increase", "setting": "[1]; 30 min pre-treatment with 10 nM calcitriol, vs non-treated cells", "result": 1.5, "unit": "fold"}, {"measurement": "ALP activity, increase", "setting": "[2]; 7 days, perfusion culture of pre-treated hASCs vs static culture of pre-treated hASCs", "result": 9.2, "unit": "fold"}, {"measurement": "ALP activity, increase", "setting": "[2]; 7 days, perfusion culture of pre-treated vs perfusion culture of non-treated hASCs", "result": 2.6, "unit": "fold"}, {"measurement": "ALP activity, increase", "setting": "[2]; 14 days, perfusion culture of pre-treated vs static culture of pre-treated hASCs", "result": 2.2, "unit": "fold"}, {"measurement": "ALP activity, increase", "setting": "[2]; static condition, day 7, pre-treated vs non-treated hASCs", "result": 2.8, "unit": "fold"}, {"measurement": "ALP activity, increase", "setting": "[2]; static condition, day 14, pre-treated vs non-treated hASCs", "result": 1.3, "unit": "fold"}, {"measurement": "cell proliferation, increase", "setting": "[3]; dynamic culture of pre-treated hASCs, 14 days relative to 7 days of culture", "result": 1.1, "unit": "fold"}, {"measurement": "cell proliferation, increase", "setting": "[3]; dynamic culture of pre-treated hASCs, 14 days, relative to the first day", "result": 10.8, "unit": "fold"}, {"measurement": "cell proliferation, increase", "setting": "[3]; dynamic culture of pre-treated hASCs, after 7 days, relative to the first day", "result": 9.9, "unit": "fold"}, {"measurement": "cell proliferation", "setting": "[3]; perfusion culture of pre-treated vs perfusion culture of non-treated hASCs, after 7 and 14 days", "result": "slightly decelerates"}, {"measurement": "cell proliferation, increase", "setting": "[3]; static culture of pre-treated hASCs (10 nM, 30 min), after 7 days, relative to the first day", "result": 10.6, "unit": "fold"}, {"measurement": "cell proliferation, increase", "setting": "[3]; static culture of pre-treated hASCs, 14 days, relative to the first day", "result": 1.6, "unit": "fold"}, {"measurement": "ALP activity by ALP staining (NBT/BCIP)", "setting": "[4]", "result": "notably increases"}]}
